Data taken from PMC9953004, “Scandium-44 Radiolabeled Peptide and Peptidomimetic Conjugates Targeting Neuropilin-1 Co-Receptor as Potential Tools for Cancer Diagnosis and Anti-Angiogenic Therapy” (Biomedicines, 2023).
Where a SMILES comes first, the peptide text is derived from it. Where no end group is shown, it is not given here. Side-chain parts run from the residue outwards. [ ]: non-standard residue; d: D form. The star is where a group is joined. DOTA = O=C(O)CN1CCN(CC(=O)O)CCN(CC(=O)*)CCN(CC(=O)O)CC1; hArg = N=C(N)NCCCC[C@H](N)C(=O)O; Dab = NCC[C@H](N)C(=O)O; Ahx = NCCCCCC(=O)O

How the values were obtained:
[1] = molecular target: T1, VEGF-A165/NRP-1 complex (Homo sapiens, UniProt O14786); experiment: Competitive NRP-1-binding inhibition assay (competitive ELISA, bt-VEGF-A165 vs coated NRP-1); conditions: for logIC50 ± SD / IC50: inhibition of VEGF-A165/NRP-1 complex formation, mean ± SD, n = 3; for binding affinity for NRP-1: summary of competitive ELISA results
T1 construct: purchased BioLegend (NRP-1); Abcam (bt-VEGF-A165)
T1 sequence (O14786 22-641 limits assumed): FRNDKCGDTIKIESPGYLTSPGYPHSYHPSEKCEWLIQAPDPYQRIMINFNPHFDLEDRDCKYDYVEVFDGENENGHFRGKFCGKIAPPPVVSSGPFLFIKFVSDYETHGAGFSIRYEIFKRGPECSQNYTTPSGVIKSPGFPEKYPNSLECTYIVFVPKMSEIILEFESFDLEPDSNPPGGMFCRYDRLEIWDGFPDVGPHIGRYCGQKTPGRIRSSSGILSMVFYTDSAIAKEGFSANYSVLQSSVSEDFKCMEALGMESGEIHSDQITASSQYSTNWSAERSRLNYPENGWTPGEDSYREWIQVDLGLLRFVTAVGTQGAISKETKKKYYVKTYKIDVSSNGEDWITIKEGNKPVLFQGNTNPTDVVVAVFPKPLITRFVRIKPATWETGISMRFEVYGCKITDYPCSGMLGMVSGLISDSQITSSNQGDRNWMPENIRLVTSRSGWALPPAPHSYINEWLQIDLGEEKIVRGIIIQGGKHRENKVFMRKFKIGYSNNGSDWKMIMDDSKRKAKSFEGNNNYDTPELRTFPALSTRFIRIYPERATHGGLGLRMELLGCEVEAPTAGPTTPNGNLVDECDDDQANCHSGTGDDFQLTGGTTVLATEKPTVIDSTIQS
Experimental: The study of biological activity (inhibition of VEGF-A165/NRP-1 binding) of Sc-1, Sc-1bis, Sc-2, Sc-3 and Ga-3 compounds was tested by competitive ELISA test. The method used was similar to the one previously described. Briefly, the first step was to coat the bottom surface of a 96-well plate using 100 µL (200 ng/well) of recombinant human NRP-1 and incubate overnight at 4 °C. Nonspecific binding was blocked with 0.5% BSA (bovine serum albumin) in PBS. Following this, 50 µL of the solution of tested compound in PBS, in the selected concentrations (100 [µM], 50 [µM], 25 [µM], 12.5 [µM] and […]), and 50 µL (400 ng/mL) of human (bt)-VEGF-A165 in PBS containing 4 µg/mL of heparin were added. After 2 h of incubation at room temperature, the plate was washed and treated with a streptavidin–horseradish peroxidase conjugate in PBS (1:100) for 45 min. After the final wash, the chemiluminescence was quantified immediately after addition of 100 μL chemiluminescent substrate. Wells incubated with (bt)-VEGF-A165 served only as positive control (P), while wells not coated with NRP-1 were used as negative control (NS). Percentages of inhibition were calculated according to the following formula. % inhibition=100% −(S−NS)·100%/P−NS where: S—measured signal, NS—negative control signal, P—positive control signal. Test IC50 [µM] values (mean ± SD of three independent experiments) were determined by nonlinear regression analysis (log(inhibitor) vs. normalized response—variable slope) generated in GraphPad Prism 9.0.0 program (Graph Pad, San Diego, CA, USA).

[2] = assay type: physicochemical; conditions: pH 7.4
Experimental: (§1) Radioconjugate stability tests in 0.1 M PBS solution, 1 mM cysteine (Cys) solution, 1 mM histidine (His) solution and human serum (HS) were performed under rigorous conditions according to the procedure described in detail in our previous paper. In brief, isolated radioconjugates were dissolved in 50 µL PBS and appropriate volume of Cys, His and HS solution and then incubated at 37 °C. After the specified incubation time (depending on the half-life of a given radionuclide), which was up to 4–8 h for the ^44Sc-radiocompounds, 4 h for the ^68Ga-radiocompounds and about 6–14 days for the ^177Lu-radiocompounds, aliquots of solution were withdrawn from the mixture and the composition of the solution was analyzed on RP-HPLC in System 3 or 4 with gamma detection. The concentrations of Cys and His solutions were about 1000 times higher than that of the studied radiocompound. In the case of the radioconjugate stability study in HS, the concentration of the radiocompound was a maximum of 2–25 nmol/mL in 100% human serum. After incubation, the protein components were precipitated with a 2.5-fold volume excess of ethanol prior to RP-HPLC analysis, and then both the supernatant and precipitate radioactivity were measured with a Wizard gamma counter. The percentage of radioactivity remaining in the supernatant and bound by the precipitated serum protein components was calculated as the ratio of the radioactivity of the supernatant or the precipitate, respectively, to the sum of the radioactivity of the supernatant and the precipitate.

[3] = physchem; assay type: physicochemical; conditions: for logP: pH 7.4, logP ± SD; for logP ± SD: pH 7.4
Experimental: The lipophilicity value, defined as the decimal logarithm (logP) of the partition coefficient (P), was tested in the system of two immiscible (but saturated with each other) phases: 0.1 M PBS solution, pH 7.4, and n-octanol, in three independent experiments. Partition coefficient was determined as a ratio of radioactivity of the organic (n-octanol) and aqueous (PBS solution) phases and was shown as the mean ± SD. The lipophilicity test was carried out as follows: the tested radiocompound dissolved in 10–20 µL of PBS was incubated and intensively mixed in an equal amount of these two phases. After centrifugation, radioactivity of appropriate amounts of the separated organic (500 µL) and aqueous (100 µL) phases were measured on the Wizard gamma counter. Differences in the volume of phases taken for measurement resulted from the very low radioactivity of organic phases and were included in the calculations. Additionally, to confirm the stability of the studied radiocompounds during the experiment, the RP-HPLC analyses of the aqueous phase were performed after each lipophilicity test.

[4] = assay type: in vitro ADME, human
Experimental: as §1

Row | Compound | logIC50 ± SD [1] | binding affinity for NRP-1 [1] | stability in PBS buffer [2] | stability in human serum [4] | other results
1 | CC(C)C[C@H](NC(=O)[C@H](Cc1c[nH]c2ccccc12)NC(=O)[C@@H](NC(=O)[C@H](C)NC(=O)CCCCCNC(=O)CN1CCN(CC(=O)O)CCN(CC(=O)O)CCN(CC(=O)O)CC1)[C@@H](C)O)C(=O)N1CCC[C@H]1C(=O)N1CCC[C@H]1C(=O)N[C@@H](CCCNC(=N)N)C(=O)O [Sc-1, Sc-DOTA-Ahx-A7R] ({DOTA-Ahx}-ATWLPPR-OH) | −4.65 ± 0.12 | high binding affinity |  |  | 
2 | CC(C)C[C@@H](NC(=O)[C@H]1CCCN1C(=O)[C@H]1CCCN1C(=O)[C@H](N)CCCNC(=N)N)C(=O)N[C@H](Cc1c[nH]c2ccccc12)C(=O)N[C@@H](C(=O)N[C@H](C)C(=O)N[C@H](CCCCNC(=O)CN1CCN(CC(=O)O)CCN(CC(=O)O)CCN(CC(=O)O)CC1)C(=O)O)[C@H](C)O [Ga-3, ^DR7A-^DLys(DOTA-Ga)] (H-[dR][dP][dP][dL][dW][dT][dA][dK](DOTA)-OH) |  |  |  |  | IC50 [1]: > 100 µM
3 | N=C(N)NCCCC[C@H](N)C(=O)NCCCC[C@H](N)C(=O)N[C@@H](CCNC(=O)CCCCCNC(=O)CN1CCN(CC(=O)O)CCN(CC(=O)O)CCN(CC(=O)O)CC1)C(=O)N1CCC[C@H]1C(=O)N[C@@H](CCCNC(=N)N)C(=O)O [^44Sc-2, [^44Sc]Sc-DOTA-Ahx-K4R, metal not drawn] (H-K(hArg)[Dab]([Ahx-DOTA])PR-OH) |  |  | complete stability | insufficient stability | logP [3]: -2.57 ± 0.02
4 | CC(C)C[C@H](NC(=O)[C@H](Cc1c[nH]c2ccccc12)NC(=O)[C@@H](NC(=O)[C@H](C)NC(=O)[C@@H](N)CCCCNC(=O)CN1CCN(CC(=O)O)CCN(CC(=O)O)CCN(CC(=O)O)CC1)[C@@H](C)O)C(=O)N1CCC[C@H]1C(=O)N1CCC[C@H]1C(=O)N[C@@H](CCCNC(=N)N)C(=O)O [^177Lu-1bis, [^177Lu]Lys(DOTA-Lu)-A7R, metal not drawn] (H-K(DOTA)ATWLPPR-OH) |  |  | complete stability | insufficient stability | logP ± SD [3]: −4.45 ± 0.03
5 | N=C(N)NCCCC[C@H](N)C(=O)NCCCC[C@H](N)C(=O)N[C@@H](CCNC(=O)CCCCCNC(=O)CN1CCN(CC(=O)O)CCN(CC(=O)O)CCN(CC(=O)O)CC1)C(=O)N1CCC[C@H]1C(=O)N[C@@H](CCCNC(=N)N)C(=O)O [Sc-2, Lys(hArg)-Dab(Ahx-DOTA-Sc)-Pro-Arg] (H-K(hArg)[Dab]([Ahx-DOTA])PR-OH) | −4.73 ± 0.03 | high binding affinity |  |  | 
6 | ATWLPPR-OH [A7R, Ala-Thr-Trp-Leu-Pro-Pro-Arg, reference compound] | −4.74 ± 0.02 | high binding affinity |  |  | 
7 | CC(C)C[C@@H](NC(=O)[C@H]1CCCN1C(=O)[C@H]1CCCN1C(=O)[C@H](N)CCCNC(=N)N)C(=O)N[C@H](Cc1c[nH]c2ccccc12)C(=O)N[C@@H](C(=O)N[C@H](C)C(=O)O)[C@H](C)O [^DR7A, DArg-DPro-DPro-DLeu-DTrp-DThr-DAla, reference compound] (H-[dR][dP][dP][dL][dW][dT][dA]-OH; C-terminus assumed) |  | very low binding affinity |  |  | IC50 [1]: > 100 µM
8 | CC(C)C[C@H](NC(=O)[C@H](Cc1c[nH]c2ccccc12)NC(=O)[C@@H](NC(=O)[C@H](C)NC(=O)CCCCCNC(=O)CN1CCN(CC(=O)O)CCN(CC(=O)O)CCN(CC(=O)O)CC1)[C@@H](C)O)C(=O)N1CCC[C@H]1C(=O)N1CCC[C@H]1C(=O)N[C@@H](CCCNC(=N)N)C(=O)O [^44Sc-1, [^44Sc]Sc-DOTA-Ahx-A7R, metal not drawn] ({DOTA-Ahx}-ATWLPPR-OH) |  |  | complete stability | insufficient stability | logP [3]: -3.44 ± 0.02
9 | CC(C)C[C@H](NC(=O)[C@H](Cc1c[nH]c2ccccc12)NC(=O)[C@@H](NC(=O)[C@H](C)NC(=O)[C@@H](N)CCCCNC(=O)CN1CCN(CC(=O)O)CCN(CC(=O)O)CCN(CC(=O)O)CC1)[C@@H](C)O)C(=O)N1CCC[C@H]1C(=O)N1CCC[C@H]1C(=O)N[C@@H](CCCNC(=N)N)C(=O)O [^44Sc-1bis, [^44Sc]Lys(DOTA-Sc)-A7R, metal not drawn] (H-K(DOTA)ATWLPPR-OH) |  |  | complete stability | insufficient stability | logP ± SD [3]: −3.56 ± 0.06
10 | CC(C)C[C@@H](NC(=O)[C@H]1CCCN1C(=O)[C@H]1CCCN1C(=O)[C@H](N)CCCNC(=N)N)C(=O)N[C@H](Cc1c[nH]c2ccccc12)C(=O)N[C@@H](C(=O)N[C@H](C)C(=O)N[C@H](CCCCNC(=O)CN1CCN(CC(=O)O)CCN(CC(=O)O)CCN(CC(=O)O)CC1)C(=O)O)[C@H](C)O [Sc-3, ^DR7A-^DLys(DOTA-Sc)] (H-[dR][dP][dP][dL][dW][dT][dA][dK](DOTA)-OH) |  | very low binding affinity |  |  | 
11 | CC(C)C[C@H](NC(=O)[C@H](Cc1c[nH]c2ccccc12)NC(=O)[C@@H](NC(=O)[C@H](C)NC(=O)[C@@H](N)CCCCNC(=O)CN1CCN(CC(=O)O)CCN(CC(=O)O)CCN(CC(=O)O)CC1)[C@@H](C)O)C(=O)N1CCC[C@H]1C(=O)N1CCC[C@H]1C(=O)N[C@@H](CCCNC(=N)N)C(=O)O [Sc-1bis, Lys(DOTA-Sc)-A7R] (H-K(DOTA)ATWLPPR-OH) | −4.74 ± 0.01 | high binding affinity |  |  | 
12 | N=C(N)NCCCC[C@H](N)C(=O)NCCCC[C@H](N)C(=O)N[C@@H](CCN)C(=O)N1CCC[C@H]1C(=O)N[C@@H](CCCNC(=N)N)C(=O)O [K4R, Lys(hArg)-Dab-Pro-Arg] (H-K(hArg)[Dab]PR-OH) | −5.32 ± 0.12 | high binding affinity |  |  | 
